ChEMBL document CHEMBL4190346, “Structure-based design, synthesis, and biological evaluation of withaferin A-analogues as potent apoptotic inducers” (Eur J Med Chem, 2017)
Numbered stars: 1 amine (or outer) side, 2 acyl side, 3 side chain; on linkers, the order of the positions; unused ones are H or OH. Bridge positions count the residues as written; N and C are the ends. Square brackets hold non-standard residues; d marks the D form. Peptide text beside a SMILES is read from it. I, II: the chains in the order shown. Actinocin(1to9) = Cc1c2oc3c(C)ccc(C(=O)[*:2])c3nc-2c(C(=O)[*:1])c(N)c1=O; NMeV = CN[C@H](C(=O)O)C(C)C; Sar = CNCC(=O)O

Legend:
A549 [1] = test: Cytotoxicity against human A549 cells assessed as reduction in cell viability using compound addition to cell culture cells in log phase of growth and incubated for 48 hrs by MTT assay; assay type: functional, cell-based; conditions: Homo sapiens, A549, 48 h; read-out: IC50
MCF7 [2] = test: Cytotoxicity against human MCF7 cells assessed as reduction in cell viability using compound addition to cell culture cells in log phase of growth and incubated for 48 hrs by MTT assay; assay type: functional, cell-based; conditions: Homo sapiens, MCF7, 48 h; read-out: IC50
HeLa [3] = test: Cytotoxicity against human HeLa cells assessed as reduction in cell viability using compound addition to cell culture cells in lag phase of growth and incubated for 48 hrs by MTT assay; assay type: functional, cell-based; conditions: Homo sapiens, HeLa, 48 h; read-out: IC50
Vero [4] = test: Cytotoxicity against African green monkey Vero cells assessed as reduction in cell viability using compound addition to cell culture cells in lag phase of growth and incubated for 48 hrs by MTT assay; assay type: cell-based, Chlorocebus sabaeus; conditions: Chlorocebus sabaeus, Vero, 48 h; read-out: IC50
HeLa [5] = test: Cytotoxicity against human HeLa cells assessed as reduction in cell viability using compound addition to cell culture cells in log phase of growth and incubated for 48 hrs by MTT assay; assay type: functional, cell-based; conditions: Homo sapiens, HeLa, 48 h; read-out: IC50
MCF7 [6] = test: Cytotoxicity against human MCF7 cells assessed as reduction in cell viability using compound addition to cell culture cells in lag phase of growth and incubated for 48 hrs by MTT assay; assay type: functional, cell-based; conditions: Homo sapiens, MCF7, 48 h; read-out: IC50
Vero [7] = test: Cytotoxicity against African green monkey Vero cells assessed as reduction in cell viability using compound addition to cell culture cells in log phase of growth and incubated for 48 hrs by MTT assay; assay type: cell-based, Chlorocebus sabaeus; conditions: Chlorocebus sabaeus, Vero, 48 h; read-out: IC50
A549 [8] = test: Cytotoxicity against human A549 cells assessed as reduction in cell viability using compound addition to cell culture cells in lag phase of growth and incubated for 48 hrs by MTT assay; assay type: functional, cell-based; conditions: Homo sapiens, A549, 48 h; read-out: IC50

COC(=O)CCC(=O)OCC1=C(C)C[C@H]([C@@H](C)[C@H]2CC[C@H]3[C@@H]4C[C@H]5O[C@]56[C@@H](OC(=O)CCC(=O)OC)C=CC(=O)[C@]6(C)[C@H]4CC[C@]23C)OC1=O
IC50 (A549 [1]): 3.4 µM
IC50 (MCF7 [2]): 1.5 µM
IC50 (HeLa [3]): 1.8 µM
IC50 (Vero [4]): 0.7 µM
IC50 (HeLa [5]): 2.9 µM
IC50 (MCF7 [6]): 1.4 µM
IC50 (Vero [7]): 0.6 µM
IC50 (A549 [8]): 2.1 µM

CC1=C(CO[Si](C)(C)C(C)(C)C)C(=O)O[C@@H]([C@@H](C)[C@H]2CC[C@H]3[C@@H]4C[C@H](O)[C@]5(O)[C@@H](O)C=CC(=O)[C@]5(C)[C@H]4CC[C@]23C)C1
IC50 (A549 [1]): 10 µM
IC50 (MCF7 [2]): 5.6 µM
IC50 (HeLa [3]): 14.8 µM
IC50 (Vero [4]): 7.9 µM
IC50 (HeLa [5]): 12 µM
IC50 (MCF7 [6]): 7.5 µM
IC50 (Vero [7]): 7.6 µM
IC50 (A549 [8]): 14.2 µM

CO[C@H]1CC(=O)[C@]2(C)[C@H]3CC[C@]4(C)[C@@H]([C@H](C)[C@H]5CC(C)=C(CO)C(=O)O5)CC[C@H]4[C@@H]3C[C@H]3O[C@]32[C@H]1O
IC50 (A549 [1]): > 40 µM
IC50 (MCF7 [2]): > 40 µM
IC50 (HeLa [3]): > 40 µM
IC50 (Vero [4]): > 40 µM
IC50 (HeLa [5]): > 40 µM
IC50 (MCF7 [6]): > 40 µM
IC50 (Vero [7]): > 40 µM
IC50 (A549 [8]): > 40 µM

Cc1c2oc3c(C)ccc(C(=O)N[C@@H]4C(=O)N[C@H](C(C)C)C(=O)N5CCC[C@H]5C(=O)N(C)CC(=O)N(C)[C@@H](C(C)C)C(=O)O[C@@H]4C)c3nc-2c(C(=O)N[C@@H]2C(=O)N[C@H](C(C)C)C(=O)N3CCC[C@H]3C(=O)N(C)CC(=O)N(C)[C@@H](C(C)C)C(=O)O[C@@H]2C)c(N)c1=O [DACTINOMYCIN] (I: T[dV]P[Sar][NMeV] / II: T[dV]P[Sar][NMeV]; ester I:1-I:C, II:1-II:C; linker I:N-II:N via Actinocin(1to9))
IC50 (A549 [1]): 0.008 µM
IC50 (MCF7 [2]): 0.048 µM
IC50 (HeLa [5]): 0.0032 µM
IC50 (Vero [7]): 0.011 µM

CC1=C(C)C(=O)O[C@@H]([C@@H](C)[C@H]2CC[C@H]3[C@@H]4C[C@H]5O[C@]56[C@@H](O)CCC(=O)[C@]6(C)[C@H]4CC[C@]23C)C1
IC50 (A549 [1]): > 40 µM
IC50 (MCF7 [2]): > 40 µM
IC50 (HeLa [3]): > 40 µM
IC50 (Vero [4]): > 40 µM
IC50 (HeLa [5]): > 40 µM
IC50 (MCF7 [6]): > 40 µM
IC50 (Vero [7]): > 40 µM
IC50 (A549 [8]): > 40 µM

CC(=O)OCC1=C(C)C[C@H]([C@@H](C)[C@H]2CC[C@H]3[C@@H]4C[C@H](Cl)[C@]5(O)[C@@H](O)C=CC(=O)[C@]5(C)[C@H]4CC[C@]23C)OC1=O
IC50 (A549 [1]): 17.1 µM
IC50 (MCF7 [2]): 7.2 µM
IC50 (HeLa [3]): 16.1 µM
IC50 (Vero [4]): 4.8 µM
IC50 (HeLa [5]): 14.8 µM
IC50 (MCF7 [6]): 10.9 µM
IC50 (Vero [7]): 6.5 µM
IC50 (A549 [8]): 10.8 µM

CC1=C(CO)C(=O)O[C@@H]([C@@H](C)[C@H]2CC[C@H]3[C@@H]4C[C@H](Cl)[C@]5(O)[C@@H](O)C=CC(=O)[C@]5(C)[C@H]4CC[C@]23C)C1
IC50 (A549 [1]): 16.1 µM
IC50 (MCF7 [2]): 7.9 µM
IC50 (HeLa [5]): 17.5 µM

CC1=C(CO[Si](C)(C)C(C)(C)C)C(=O)O[C@@H]([C@@H](C)[C@H]2CC[C@H]3[C@@H]4C[C@H]5O[C@]56[C@@H](O)C=CC(=O)[C@]6(C)[C@H]4CC[C@]23C)C1
IC50 (A549 [1]): 4 µM
IC50 (MCF7 [2]): 1.2 µM
IC50 (HeLa [5]): 3.1 µM
IC50 (Vero [7]): 0.8 µM

CC1=C(CO)C(=O)O[C@@H]([C@@H](C)[C@H]2CC[C@H]3[C@@H]4C[C@H]5O[C@]56[C@@H](O)CCC(=O)[C@]6(C)[C@H]4CC[C@]23C)C1
IC50 (A549 [1]): 19.7 µM
IC50 (MCF7 [2]): 12.2 µM
IC50 (HeLa [5]): 32.2 µM
IC50 (Vero [7]): 24.2 µM

Sc1ncnc2nc[nH]c12 [MERCAPTOPURINE ANHYDROUS]
IC50 (Vero [7]): > 117 µM

CC(=O)OCC1=C(C)C[C@H]([C@@H](C)[C@H]2CC[C@H]3[C@@H]4C[C@H]5O[C@]56[C@@H](O)C=CC(=O)[C@]6(C)[C@H]4CC[C@]23C)OC1=O
IC50 (MCF7 [2]): 4.6 µM
IC50 (HeLa [5]): 10.2 µM
IC50 (Vero [7]): 5.9 µM
